According to patent US11377442B2, “Small molecule agonists and antagonists of NR2F6 activity” (ZANDER THERAPEUTICS, INC., priority 2016, dated 2022):
Read-outs that look alike come from different tables or passages of the source.

Assays:
Assay type in all cases: cell-based
[1] = target: T1, ERα (Homo sapiens, UniProt P03372); assay: Counterscreening, Firefly signal with ERα transient transfection (Firefly_ERa); conditions: for Firefly ERalpha transient, cmpd/DMSO (mean): 10 uM
T1 construct: expressed in transfected cells
T1 sequence (P03372 1-595): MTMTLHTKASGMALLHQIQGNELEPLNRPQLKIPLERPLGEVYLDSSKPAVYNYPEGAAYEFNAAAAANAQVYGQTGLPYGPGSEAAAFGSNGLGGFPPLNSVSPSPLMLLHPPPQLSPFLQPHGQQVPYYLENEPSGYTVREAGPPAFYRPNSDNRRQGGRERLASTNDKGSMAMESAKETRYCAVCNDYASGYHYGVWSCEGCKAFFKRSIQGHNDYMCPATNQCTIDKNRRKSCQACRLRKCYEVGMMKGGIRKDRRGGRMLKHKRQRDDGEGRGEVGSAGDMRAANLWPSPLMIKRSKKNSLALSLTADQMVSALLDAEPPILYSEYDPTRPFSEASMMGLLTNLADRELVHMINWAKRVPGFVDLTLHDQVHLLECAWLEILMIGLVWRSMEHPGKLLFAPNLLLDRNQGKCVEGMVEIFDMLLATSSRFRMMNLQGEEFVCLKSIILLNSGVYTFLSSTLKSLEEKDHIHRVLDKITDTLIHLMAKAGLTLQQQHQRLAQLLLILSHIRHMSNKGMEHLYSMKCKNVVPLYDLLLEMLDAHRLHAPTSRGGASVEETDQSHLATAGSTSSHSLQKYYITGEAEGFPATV
Procedure: The methodology for screening candidate compounds as NR2F6 agonists was as follows: For primary screening, hit criteria was ACT %>DMSO control+5*SD (DSO control) at 10 μM, or any compound with S/B>2. For rescreening, hit criteria was ACT %>DMSO control+3*SD (DSO control) in each replicate at 10 μM. For counterscreening, hit criteria was mean ACT<DMSO control+3*SD (DMSO control) with ERα transient transfection in duplicate at 10 μM.

[2] = test system: Renilla_ERa; assay: Renilla signal in ERα counterscreen (Renilla_ERa)
[3] = target: T2, NR2F6 (Homo sapiens, UniProt P10588); assay: NR2F6 agonist screening, Firefly signal cmpd/DMSO
T2 construct: expressed in transfected cells; also transient transfection
T2 sequence (P10588 1-404): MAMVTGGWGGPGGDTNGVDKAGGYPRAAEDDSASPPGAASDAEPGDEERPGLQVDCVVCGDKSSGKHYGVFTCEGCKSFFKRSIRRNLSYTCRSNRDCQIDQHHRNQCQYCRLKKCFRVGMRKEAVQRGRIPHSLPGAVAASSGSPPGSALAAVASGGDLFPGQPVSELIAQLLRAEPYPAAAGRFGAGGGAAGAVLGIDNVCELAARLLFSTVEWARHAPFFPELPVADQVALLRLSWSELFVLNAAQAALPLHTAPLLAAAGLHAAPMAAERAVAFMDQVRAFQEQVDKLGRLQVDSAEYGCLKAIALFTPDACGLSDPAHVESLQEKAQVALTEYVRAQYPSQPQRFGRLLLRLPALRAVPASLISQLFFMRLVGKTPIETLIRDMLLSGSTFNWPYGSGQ

[4] = test system: Renilla; assay: Renilla signal in NR2F6 agonist screening, cmpd/DMSO; conditions: for fold induction at 2 µM / fold induction at 10 µM / fold induction at 40 µM: Renilla
[5] = target: T1, ERα; assay: Counterscreening, Firefly signal with ERα transient transfection (Firefly_ERa)
[6] = test system: HEK293 pGL4; assay: Firefly_pGL signal, cmpd/DMSO (pGL4 control cells); conditions: Homo sapiens, HEK293, Table 14, read-out: Firefly pGL4, cmpd/DMSO (mean)
[7] = 2 uM, read-out: Renilla ERalpha transient, cmpd/DMSO (mean)
[8] = 10 uM, read-out: Renilla ERalpha transient, cmpd/DMSO (mean)
[9] = 40 uM, read-out: Renilla ERalpha transient, cmpd/DMSO (mean)
[10] = 2 uM, clone F4, read-out: Renilla F4, cmpd/DMSO (mean)
[11] = 10 uM, clone F4, read-out: Renilla F4, cmpd/DMSO (mean)
[12] = 40 uM, clone F4, read-out: Renilla F4, cmpd/DMSO (mean)

Structure (SMILES) | Firefly ERalpha transient, cmpd/DMSO (mean) [1] | Firefly F4, cmpd/DMSO (mean) ([3]; 2 uM, clone F4) | Firefly F4, cmpd/DMSO (mean) ([3]; 10 uM, clone F4) | Firefly F4, cmpd/DMSO (mean) ([3]; 40 uM, clone F4) | Firefly ERalpha transient, cmpd/DMSO (mean) ([5]; 2 uM) | Firefly ERalpha transient, cmpd/DMSO (mean) ([5]; 40 uM) | Firefly ERalpha transient, cmpd/DMSO (mean) ([1]; Table 15) | Firefly F4, cmpd/DMSO (mean) ([3]; Table 15, 2 uM) | Firefly F4, cmpd/DMSO (mean) ([3]; Table 15, 10 uM) | Firefly F4, cmpd/DMSO (mean) ([3]; Table 15, 40 uM) | Firefly ERalpha transient, cmpd/DMSO (mean) ([5]; Table 15, 2 uM) | Firefly ERalpha transient, cmpd/DMSO (mean) ([5]; Table 15, 40 uM) | further results
N#Cc1c(C(F)(F)F)nc2ccc(Cl)cc2c1NC1CC1 [Compound Z48] | 0.3 | 0.9 | 0.5 | 0.7 | 1.5 | 0.5 |  |  |  |  |  |  | fold induction at 2 µM [2, 7]: 1.1; fold induction at 10 µM [2, 8]: 0.8; fold induction at 40 µM [2, 9]: 0.6; fold induction at 2 µM [4, 10]: 0.8; fold induction at 10 µM [4, 11]: 0.6; fold induction at 40 µM [4, 12]: 0.6
CNc1c(C#N)c(C(F)(F)F)nc2ccc(Oc3ccccc3)cc12 [Compound Z53] | 0.3 | 0.8 | 0.4 | 0.5 | 1.0 | 0.4 |  |  |  |  |  |  | fold induction at 2 µM [2, 7]: 1; fold induction at 10 µM [2, 8]: 0.6; fold induction at 40 µM [2, 9]: 0.5; fold induction at 2 µM [4, 10]: 0.7; fold induction at 10 µM [4, 11]: 0.7; fold induction at 40 µM [4, 12]: 0.6
CCCCCCNc1nc(OCC)nc(N2CCn3c(cccc3=O)C2)n1 [Compound 40] | 1.0 | 0.9 | 1.0 | 0.8 | 1.0 | 0.7 |  |  |  |  |  |  | Renilla ERalpha transient, cmpd/DMSO (mean) ([2]; 2 uM): 1.2; Renilla ERalpha transient, cmpd/DMSO (mean) ([2]; 10 uM): 1.2; Renilla ERalpha transient, cmpd/DMSO (mean) ([2]; 40 uM): 1.1; Renilla F4, cmpd/DMSO (mean) ([4]; 2 uM, clone F4): 1.1; Renilla F4, cmpd/DMSO (mean) ([4]; 10 uM, clone F4): 1.3; Renilla F4, cmpd/DMSO (mean) ([4]; 40 uM, clone F4): 1.0
CCCCCCNc1nc(OC)nc(N2CCn3c(cccc3=O)C2)n1 [Compound 41] | 1.5 | 0.8 | 0.9 | 0.9 | 1.5 | 1.4 |  |  |  |  |  |  | Renilla ERalpha transient, cmpd/DMSO (mean) ([2]; 2 uM): 1.2; Renilla ERalpha transient, cmpd/DMSO (mean) ([2]; 10 uM): 1.2; Renilla ERalpha transient, cmpd/DMSO (mean) ([2]; 40 uM): 1.1; Renilla F4, cmpd/DMSO (mean) ([4]; 2 uM, clone F4): 1.1; Renilla F4, cmpd/DMSO (mean) ([4]; 10 uM, clone F4): 1.1; Renilla F4, cmpd/DMSO (mean) ([4]; 40 uM, clone F4): 1.1
CCOC(=O)c1cnc2c(C)cc(C)cc2c1NCCCN1CCCCC1 [Compound Z19] |  |  |  |  |  |  | 12.7 | 1.3 | 6.3 | 0.7 | 1.9 | 0.7 | 
CCOC(=O)c1cnc2c(C)cc(C)cc2c1NCCCN1CCCCC1 [Compound Z12] |  |  |  |  |  |  | 1.3 | 3.9 | 1.8 | 0.4 | 2.4 | 0.4 | 
CCOC(=O)c1cnc2c(C)cc(C)cc2c1NCCCN1CCCCC1 [Compound Z17] |  |  |  |  |  |  | 9.5 | 1.5 | 6.5 | 0.6 | 1.7 | 2.9 | 
CCOC(=O)c1cnc2c(C)cc(C)cc2c1NCCCN1CCCCC1 [Compound Z11] |  |  |  |  |  |  | 1.6 | 3.5 | 1.2 | 0.5 | 2.1 | 0.6 | 
CCOC(=O)c1cnc2c(C)cc(C)cc2c1NCCCN1CCCCC1 [Compound Z10] |  |  |  |  |  |  | 1.5 | 5.8 | 1.6 | 0.7 | 4.2 | 0.5 | 
CCOC(=O)c1cnc2c(C)cc(C)cc2c1NCCCN1CCCCC1 [Compound Z8] |  |  |  |  |  |  | 2.4 | 2.6 | 4.0 | 0.7 | 2.2 | 0.4 | fold induction at 2 µM ([2]; Table 15, 2 uM, read-out: Renilla ERalpha transient, cmpd/DMSO (mean)): 1.4; fold induction at 10 µM ([2]; Table 15, 10 uM, read-out: Renilla ERalpha transient, cmpd/DMSO (mean)): 1.4
CCOC(=O)c1cnc2c(C)cc(C)cc2c1NCCCN1CCCCC1 [Compound Z9] |  |  |  |  |  |  | 2.7 | 2.5 | 6.7 | 1.2 | 2.2 | 0.5 | 
Cc1ccn2cc(-c3ccc(F)cc3)cc2c1 [Compound 17] |  |  |  |  |  |  |  |  |  |  |  |  | fold induction at 2 µM ([6]; 2 uM): 1.7; fold induction at 10 µM ([6]; 10 uM): 1.6; fold induction at 40 µM ([6]; 40 uM): 1.3; Firefly_ERa, cmpd/DMSO repeat 1 ([1]; ERα transient transfection, 10 μM, repeat 1): 2.5; Firefly_ERa, cmpd/DMSO repeat 2 ([1]; ERα transient transfection, 10 μM, repeat 2): 2.2; fold induction at 10 µM ([2]; ERα transient transfection, 10 μM, repeat 1, read-out: Renilla_ERa, cmpd/DMSO repeat 1): 1.3; fold induction at 10 µM ([2]; ERα transient transfection, 10 μM, repeat 2, read-out: Renilla_ERa, cmpd/DMSO repeat 2): 1; Firefly F4, cmpd/DMSO (mean) ([3]; Table 14, 2 uM): 1.9; Firefly F4, cmpd/DMSO (mean) ([3]; Table 14, 10 uM): 1.2; Firefly F4, cmpd/DMSO (mean) ([3]; Table 14, 40 uM): 1.3; Firefly, cmpd/DMSO repeat 1 ([3]; first set screening, 10 μM, repeat 1): 2.2; Firefly, cmpd/DMSO repeat 2 ([3]; first set screening, 10 μM, repeat 2): 2.4; fold induction at 2 µM ([4]; Table 14, 2 uM, read-out: Renilla F4, cmpd/DMSO (mean)): 0.8; fold induction at 10 µM ([4]; Table 14, 10 uM, read-out: Renilla F4, cmpd/DMSO (mean)): 1; fold induction at 40 µM ([4]; Table 14, 40 uM, read-out: Renilla F4, cmpd/DMSO (mean)): 1; fold induction at 10 µM ([4]; first set screening, 10 μM, repeat 1, read-out: Renilla, cmpd/DMSO repeat 1): 1.3; fold induction at 10 µM ([4]; first set screening, 10 μM, repeat 2, read-out: Renilla, cmpd/DMSO repeat 2): 1.4
